Laboratory results from PubChem BioAssay (NCI).
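Interpolation was linear, between the two tested concentrations surrounding the appropriate level; five concentrations were tested over 48 hours in 96-well plates. GI50 is the concentration that inhibits growth by half. TGI is the concentration that stops growth completely.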

What was measured:
Test in all cases: DTP human tumour cell line panel, 48 h
MALME-3M melanoma = test system: MALME-3M melanoma
KM12 colon = test system: KM12 colon
SW-620 colon = test system: SW-620 colon
MOLT-4 leukemia = test system: MOLT-4 leukemia
UACC-62 melanoma = test system: UACC-62 melanoma
OVCAR-3 ovarian = test system: OVCAR-3 ovarian
SNB-75 CNS = test system: SNB-75 CNS
CAKI-1 renal = test system: CAKI-1 renal
SK-MEL-2 melanoma = test system: SK-MEL-2 melanoma
NCI/ADR-RES ovarian = test system: NCI/ADR-RES ovarian

SMILES | TGI (MALME-3M melanoma) | TGI (KM12 colon) | TGI (SW-620 colon) | TGI (MOLT-4 leukemia) | TGI (UACC-62 melanoma) | TGI (OVCAR-3 ovarian) | TGI (SNB-75 CNS) | TGI (CAKI-1 renal) | TGI (SK-MEL-2 melanoma) | TGI (NCI/ADR-RES ovarian) | GI50 (MALME-3M melanoma) | GI50 (KM12 colon) | GI50 (SW-620 colon) | GI50 (MOLT-4 leukemia) | GI50 (UACC-62 melanoma) | GI50 (OVCAR-3 ovarian) | GI50 (SNB-75 CNS) | GI50 (CAKI-1 renal) | GI50 (SK-MEL-2 melanoma) | GI50 (NCI/ADR-RES ovarian)
CC1CCC2(O)C3(C)CC4(O)OC2(C1O)C1(O)C3(O)C(OC(=O)c2ccc[nH]2)C(O)(C(C)C)C41C (centres undefined) | > 100 µM | > 100 µM | > 100 µM | > 100 µM | > 100 µM | > 100 µM | > 100 µM | > 100 µM | > 100 µM | > 100 µM |  |  |  |  |  |  |  |  |  | 
N#CN=[N+]([O-])c1ccc(C(=O)O)cc1 |  | > 100 µM | 36.6 µM |  | 31.4 µM | 29.7 µM | 38.9 µM |  | 33.6 µM | 39.9 µM |  |  |  |  |  |  |  |  |  | 
O=C1CSC(=S)N1 | > 100 µM | > 100 µM | > 100 µM | > 100 µM |  | > 100 µM | > 100 µM | > 100 µM | > 100 µM | > 100 µM |  |  |  |  |  |  |  |  |  | 
COc1ccc2nc3cc(Cl)ccc3c(NCCNC(=O)Cn3c(=O)n(C)c(=O)c4c3nc3c(c(=O)n(C)c(=O)n3C)[n+]4[O-])c2c1 | > 100 µM | > 100 µM | > 71.7 µM | > 90.8 µM | > 52.9 µM | > 100 µM | 92.2 µM | > 100 µM | > 100 µM | > 95.8 µM |  |  |  |  |  |  |  |  |  | 
CSc1nc(NC2OCC(O)C(O)C2O)c(N)c(=O)[nH]1 (centres undefined) | > 100 µM | > 100 µM | > 100 µM | > 100 µM | > 100 µM | > 100 µM | > 100 µM |  | > 100 µM | > 100 µM |  |  |  |  |  |  |  |  |  | 
S=c1nc(N2CCCCC2)c2cn[nH]c2[nH]1 | > 100 µM | > 100 µM | > 100 µM |  | > 100 µM | > 100 µM | > 100 µM | > 100 µM | 74.8 µM | > 100 µM |  |  |  |  |  |  |  |  |  | 
NCCCOc1ccc([N+](=O)[O-])cc1Cl | > 100 µM | > 100 µM | > 100 µM | > 100 µM | > 100 µM | > 100 µM | > 100 µM | > 100 µM | > 100 µM |  |  |  |  |  |  |  |  |  |  | 
O=C1NC2=C(CCCC/C2=N\O)C12CCCCC2 | > 100 µM | > 100 µM | > 100 µM | > 100 µM | > 100 µM | > 100 µM | > 100 µM |  |  |  |  |  |  |  |  |  |  |  |  | 
Brc1ccc(C2CC(c3cccc4ccccc34)=Nc3ccccc3S2)cc1 (centres undefined) |  | > 100 µM | 34 µM | > 100 µM | > 100 µM |  | > 100 µM | > 100 µM | > 100 µM |  |  |  |  |  |  |  |  |  |  | 
Fc1ccc(C2CC(c3cccc(Nc4ccncc4)c3)=NN2c2ccc(Cl)cc2)cc1 (centres undefined) | 3.1 µM | 3.33 µM | 3.09 µM | 5.33 µM | 3.19 µM | 3.07 µM | 2.8 µM | 2.71 µM | 3.73 µM | 3.48 µM | 1.59 µM | 1.68 µM | 1.64 µM | 2.12 µM | 1.73 µM | 1.62 µM | 1.25 µM | 1.39 µM | 1.89 µM | 1.82 µM
Cc1cc2c(cc1C)OC(=O)CC2 | > 100 µM | > 100 µM | > 100 µM | > 100 µM | > 100 µM | > 100 µM | > 100 µM | > 100 µM | > 100 µM | > 100 µM |  |  |  |  |  |  |  |  |  | 
OCCOCCN1CCN(CCCN2c3ccccc3Sc3ccc(C(F)(F)F)cc32)CC1 |  | 20.2 µM | 29.6 µM | 29.8 µM | 19.5 µM | 33 µM | 13.6 µM | 30.5 µM | 34.7 µM |  |  |  |  |  |  |  |  |  |  | 
CC(=O)OCC1=C(C(=O)O)N2C(=O)C(NC(=O)CSc3ccncc3)C2SC1 (centres undefined) | > 100 µM | > 100 µM | > 100 µM | > 100 µM | > 100 µM | > 100 µM | > 100 µM | > 100 µM | > 100 µM | > 100 µM |  |  |  |  |  |  |  |  |  | 
CCOC(=O)NC(Nc1ncccn1)(C(=O)OCC)C(F)(F)F (centres undefined) |  | > 100 µM | > 100 µM | > 100 µM | > 100 µM | > 100 µM | > 100 µM | > 100 µM | > 100 µM | > 100 µM |  |  |  |  |  |  |  |  |  | 
C[C@]12CC[C@@H]3c4ccc(O)cc4CC[C@H]3[C@@H]1CC[C@@H]2OP(=O)(O)O | > 100 µM | > 100 µM | > 100 µM | > 100 µM | > 100 µM | > 100 µM | > 100 µM | > 100 µM | > 100 µM | > 100 µM |  |  |  |  |  |  |  |  |  | 
O=C1Nc2ccccc2C1=Nc1cccc2ncccc12 | > 100 µM | > 100 µM | > 100 µM | > 100 µM | > 100 µM | > 100 µM | > 100 µM | > 100 µM | > 100 µM | > 100 µM |  |  |  |  |  |  |  |  |  | 
CC(=O)c1ccc2c(c1)c1c(C)c3c[n+](C)ccc3c(C)c1n2C | 33.7 µM | > 100 µM | > 85.4 µM | 20.8 µM | 8.23 µM | > 65.6 µM | 57.1 µM | > 76 µM | 22.6 µM | > 100 µM |  |  |  |  |  |  |  |  |  | 
